Laboratory results reported in publication PMC7206119, “RIP1 inhibition blocks inflammatory diseases but not tumor growth or metastases” (Cell Death and Differentiation, 2019).

Legend:
Experiment in all cases: biochemical
Parameters in all cases: DiscoverX kinase panel, active-site competition binding (KINOMEscan type), percent of control at one concentration
Settings in all cases: competition binding, percent of control
[1] = target: NEK6 (Homo sapiens, UniProt Q9HC98)
[2] = target: FLT3 (Homo sapiens, UniProt P36888)
[3] = target: RIPK4 (Homo sapiens, UniProt P57078)
[4] = target: PLK2 (Homo sapiens, UniProt Q9NYY3)
[5] = target: T1, IKK-alpha (Homo sapiens, UniProt O15111)
T1 construct: gene CHUK

[6] = target: FLT3(R834Q) (Homo sapiens, UniProt P36888, R834Q)
[7] = target: KIT-autoinhibited (Homo sapiens, UniProt P10721)
[8] = target: PIP5K1A (Homo sapiens, UniProt Q99755)
[9] = target: ACVRL1 (Homo sapiens, UniProt P37023)
[10] = target: PIK3CA(H1047Y) (Homo sapiens, UniProt P42336, H1047Y)
[11] = target: T2, BRK (Homo sapiens, UniProt Q13882)
T2 construct: gene PTK6

[12] = target: TLK1 (Homo sapiens, UniProt Q9UKI8)
[13] = target: T3, MST2 (Homo sapiens, UniProt Q13188)
T3 construct: gene STK3

[14] = target: KIT(L576P) (Homo sapiens, UniProt P10721, L576P)
[15] = target: MET(M1250T) (Homo sapiens, UniProt P08581, M1250T)
[16] = target: T4, RSK2(Kin.Dom.2-C-terminal) (Homo sapiens, UniProt P51812)
T4 construct: gene RPS6KA3; Kin.Dom.2-C-terminal

[17] = target: TGFBR2 (Homo sapiens, UniProt P37173)
[18] = target: NEK1 (Homo sapiens, UniProt Q96PY6)
[19] = target: T5, ABL1(F317L)-phosphorylated (Homo sapiens, UniProt P00519, F317L)
T5 construct: phosphorylated

[20] = target: NEK2 (Homo sapiens, UniProt P51955)
[21] = target: T6, CTK (Homo sapiens, UniProt P42679)
T6 construct: gene MATK
T6 sequence (P42679 whole entry): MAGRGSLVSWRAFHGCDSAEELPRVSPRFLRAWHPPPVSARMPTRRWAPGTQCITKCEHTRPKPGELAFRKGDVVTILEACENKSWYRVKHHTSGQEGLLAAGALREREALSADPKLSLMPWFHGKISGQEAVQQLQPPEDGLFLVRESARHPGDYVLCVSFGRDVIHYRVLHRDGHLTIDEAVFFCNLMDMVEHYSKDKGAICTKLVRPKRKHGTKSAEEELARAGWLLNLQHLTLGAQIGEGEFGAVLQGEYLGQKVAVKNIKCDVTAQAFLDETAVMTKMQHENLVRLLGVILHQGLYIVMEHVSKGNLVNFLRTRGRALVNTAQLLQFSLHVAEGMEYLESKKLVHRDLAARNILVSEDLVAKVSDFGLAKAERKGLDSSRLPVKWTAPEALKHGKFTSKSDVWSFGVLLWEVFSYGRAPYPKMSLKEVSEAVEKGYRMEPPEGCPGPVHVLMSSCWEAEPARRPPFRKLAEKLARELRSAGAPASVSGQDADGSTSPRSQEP

Sequence of TGFBR2 (P37173 whole entry): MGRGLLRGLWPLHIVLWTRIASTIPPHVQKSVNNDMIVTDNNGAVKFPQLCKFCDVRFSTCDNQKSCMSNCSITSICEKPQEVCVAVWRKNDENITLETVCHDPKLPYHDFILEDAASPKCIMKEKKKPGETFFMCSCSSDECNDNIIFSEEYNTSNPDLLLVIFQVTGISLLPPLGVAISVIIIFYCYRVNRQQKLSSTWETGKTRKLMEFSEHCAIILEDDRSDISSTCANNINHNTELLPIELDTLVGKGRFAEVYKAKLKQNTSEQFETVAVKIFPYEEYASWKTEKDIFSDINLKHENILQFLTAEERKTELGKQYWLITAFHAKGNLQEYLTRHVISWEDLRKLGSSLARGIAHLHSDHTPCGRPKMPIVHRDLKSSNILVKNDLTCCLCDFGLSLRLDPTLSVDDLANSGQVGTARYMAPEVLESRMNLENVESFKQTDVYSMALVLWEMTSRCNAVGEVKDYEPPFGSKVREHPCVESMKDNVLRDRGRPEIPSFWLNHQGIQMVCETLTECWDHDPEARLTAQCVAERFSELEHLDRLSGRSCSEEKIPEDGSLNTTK
Sequence of PIP5K1A (Q99755 whole entry): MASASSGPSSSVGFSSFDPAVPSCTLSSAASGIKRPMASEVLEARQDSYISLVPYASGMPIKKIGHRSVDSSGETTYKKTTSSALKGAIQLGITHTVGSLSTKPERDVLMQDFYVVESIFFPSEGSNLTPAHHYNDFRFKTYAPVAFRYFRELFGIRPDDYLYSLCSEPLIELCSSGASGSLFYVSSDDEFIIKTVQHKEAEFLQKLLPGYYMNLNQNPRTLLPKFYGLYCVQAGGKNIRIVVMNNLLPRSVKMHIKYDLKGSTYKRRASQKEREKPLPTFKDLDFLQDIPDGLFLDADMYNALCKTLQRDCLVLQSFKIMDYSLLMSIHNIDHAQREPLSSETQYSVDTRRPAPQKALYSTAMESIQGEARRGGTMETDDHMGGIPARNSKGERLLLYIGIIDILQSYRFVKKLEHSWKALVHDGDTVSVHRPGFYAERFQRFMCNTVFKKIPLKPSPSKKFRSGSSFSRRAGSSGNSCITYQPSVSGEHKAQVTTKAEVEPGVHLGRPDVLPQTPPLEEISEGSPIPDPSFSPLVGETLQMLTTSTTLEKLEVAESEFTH
Sequence of NEK2 (P51955 whole entry): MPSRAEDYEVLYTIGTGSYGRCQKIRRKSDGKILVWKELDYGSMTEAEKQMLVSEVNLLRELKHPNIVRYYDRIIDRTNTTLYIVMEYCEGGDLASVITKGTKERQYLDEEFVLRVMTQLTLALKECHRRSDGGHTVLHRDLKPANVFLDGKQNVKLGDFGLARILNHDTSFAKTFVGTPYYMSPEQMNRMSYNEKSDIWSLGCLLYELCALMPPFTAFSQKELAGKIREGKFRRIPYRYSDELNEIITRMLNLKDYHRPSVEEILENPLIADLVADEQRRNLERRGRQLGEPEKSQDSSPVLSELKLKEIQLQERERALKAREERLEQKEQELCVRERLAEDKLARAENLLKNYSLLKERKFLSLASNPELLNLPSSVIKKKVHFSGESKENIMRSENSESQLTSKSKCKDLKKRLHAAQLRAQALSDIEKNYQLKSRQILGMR
T2 sequence (Q13882 whole entry): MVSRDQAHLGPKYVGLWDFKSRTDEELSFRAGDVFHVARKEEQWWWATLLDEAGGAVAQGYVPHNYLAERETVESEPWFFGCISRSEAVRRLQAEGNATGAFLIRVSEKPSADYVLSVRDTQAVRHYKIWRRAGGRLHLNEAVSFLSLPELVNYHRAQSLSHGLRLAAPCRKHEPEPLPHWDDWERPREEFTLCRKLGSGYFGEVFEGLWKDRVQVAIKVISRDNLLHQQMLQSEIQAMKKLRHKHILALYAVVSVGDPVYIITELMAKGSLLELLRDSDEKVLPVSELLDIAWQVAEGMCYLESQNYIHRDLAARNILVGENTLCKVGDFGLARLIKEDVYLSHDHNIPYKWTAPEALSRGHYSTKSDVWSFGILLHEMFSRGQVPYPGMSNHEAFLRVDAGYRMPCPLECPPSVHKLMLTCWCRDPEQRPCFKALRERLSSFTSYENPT
Sequence of NEK1 (Q96PY6 whole entry): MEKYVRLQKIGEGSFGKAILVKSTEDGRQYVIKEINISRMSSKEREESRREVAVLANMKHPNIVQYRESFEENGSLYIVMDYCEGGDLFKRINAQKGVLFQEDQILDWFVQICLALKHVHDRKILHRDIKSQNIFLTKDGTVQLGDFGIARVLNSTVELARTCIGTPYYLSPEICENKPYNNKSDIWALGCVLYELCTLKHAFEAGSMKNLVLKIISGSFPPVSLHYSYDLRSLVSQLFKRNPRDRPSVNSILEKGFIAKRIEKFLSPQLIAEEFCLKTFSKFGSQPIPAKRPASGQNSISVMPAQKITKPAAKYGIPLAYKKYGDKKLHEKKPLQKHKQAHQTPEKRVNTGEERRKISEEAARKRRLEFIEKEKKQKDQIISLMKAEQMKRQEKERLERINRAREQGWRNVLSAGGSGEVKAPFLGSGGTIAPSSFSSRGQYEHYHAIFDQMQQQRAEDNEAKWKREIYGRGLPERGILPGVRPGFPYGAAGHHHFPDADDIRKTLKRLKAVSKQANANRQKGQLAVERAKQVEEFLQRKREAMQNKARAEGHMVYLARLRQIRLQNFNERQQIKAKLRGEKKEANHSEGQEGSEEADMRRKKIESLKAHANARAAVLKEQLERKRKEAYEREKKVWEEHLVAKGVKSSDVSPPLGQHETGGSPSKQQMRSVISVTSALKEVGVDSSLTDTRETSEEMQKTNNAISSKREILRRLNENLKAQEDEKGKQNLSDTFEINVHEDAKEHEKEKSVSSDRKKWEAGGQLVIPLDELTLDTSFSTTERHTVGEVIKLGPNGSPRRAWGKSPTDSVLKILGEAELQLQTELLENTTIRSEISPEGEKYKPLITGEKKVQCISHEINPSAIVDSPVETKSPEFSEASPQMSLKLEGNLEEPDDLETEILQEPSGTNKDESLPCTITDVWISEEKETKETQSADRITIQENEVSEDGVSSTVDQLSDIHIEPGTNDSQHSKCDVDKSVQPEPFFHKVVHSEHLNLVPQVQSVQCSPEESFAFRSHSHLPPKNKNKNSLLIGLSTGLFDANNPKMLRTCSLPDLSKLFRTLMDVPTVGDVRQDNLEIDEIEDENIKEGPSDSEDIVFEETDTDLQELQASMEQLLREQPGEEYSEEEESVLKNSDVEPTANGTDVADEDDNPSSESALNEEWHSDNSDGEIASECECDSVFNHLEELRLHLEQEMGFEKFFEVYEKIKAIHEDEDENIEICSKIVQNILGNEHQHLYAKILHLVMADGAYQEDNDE
Sequence of KIT(L576P) (P10721 whole entry L576P): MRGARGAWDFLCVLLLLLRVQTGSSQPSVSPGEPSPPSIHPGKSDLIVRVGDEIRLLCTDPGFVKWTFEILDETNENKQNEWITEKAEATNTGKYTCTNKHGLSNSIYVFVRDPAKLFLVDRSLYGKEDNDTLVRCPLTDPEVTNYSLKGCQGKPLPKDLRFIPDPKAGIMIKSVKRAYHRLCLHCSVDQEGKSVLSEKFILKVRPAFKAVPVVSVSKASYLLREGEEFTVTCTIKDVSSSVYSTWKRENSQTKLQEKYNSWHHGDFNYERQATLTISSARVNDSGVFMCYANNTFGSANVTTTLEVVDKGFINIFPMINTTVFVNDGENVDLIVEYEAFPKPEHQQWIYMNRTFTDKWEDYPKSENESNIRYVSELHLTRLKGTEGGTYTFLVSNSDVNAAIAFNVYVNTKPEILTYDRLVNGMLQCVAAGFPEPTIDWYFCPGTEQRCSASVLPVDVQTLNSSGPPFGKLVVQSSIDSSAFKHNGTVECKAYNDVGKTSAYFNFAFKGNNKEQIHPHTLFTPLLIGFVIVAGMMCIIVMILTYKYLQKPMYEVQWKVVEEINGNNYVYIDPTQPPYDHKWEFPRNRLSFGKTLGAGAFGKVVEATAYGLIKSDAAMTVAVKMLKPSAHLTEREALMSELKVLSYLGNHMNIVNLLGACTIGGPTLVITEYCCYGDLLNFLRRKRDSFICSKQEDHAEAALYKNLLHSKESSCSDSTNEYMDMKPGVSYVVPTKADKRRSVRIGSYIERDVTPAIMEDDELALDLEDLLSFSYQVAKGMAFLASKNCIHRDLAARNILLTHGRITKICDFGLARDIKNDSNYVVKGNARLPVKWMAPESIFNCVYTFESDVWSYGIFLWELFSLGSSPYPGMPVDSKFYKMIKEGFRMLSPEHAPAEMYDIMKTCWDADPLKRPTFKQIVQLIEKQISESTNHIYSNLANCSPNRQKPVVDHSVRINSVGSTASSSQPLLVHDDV
Sequence of KIT-autoinhibited (P10721 whole entry): as the sequence (P10721 whole entry L576P) above, with P576L counted along it

COc1cc2c(cn1)N(C)C(=O)[C@@H](NC(=O)c1nc3n(n1)[C@H](c1ccccc1)CC3)CC2 [GNE684, (S)-N-((S)-7-methoxy-1-methyl-2-oxo-2,3,4,5-tetrahydro-1H-pyrido[3,4-b]azepin-3-yl)-5-phenyl-6,7-dihydro-5H-pyrrolo[1,2-b][1,2,4]triazole-2-carboxamide]
remaining binding at 10 µM [1]: 85%
remaining binding at 10 µM [2]: 87%
remaining binding at 10 µM [3]: 100%
remaining binding at 10 µM [4]: 97%
remaining binding at 10 µM [5]: 100%
remaining binding at 10 µM [6]: 100%
remaining binding at 10 µM [7]: 93%
remaining binding at 10 µM [8]: 99%
remaining binding at 10 µM [9]: 87%
remaining binding at 10 µM [10]: 93%
remaining binding at 10 µM [11]: 100%
remaining binding at 10 µM [12]: 97%
remaining binding at 10 µM [13]: 100%
remaining binding at 10 µM [14]: 100%
remaining binding at 10 µM [15]: 100%
remaining binding at 10 µM [16]: 85%
remaining binding at 10 µM [17]: 94%
remaining binding at 10 µM [18]: 100%
remaining binding at 10 µM [19]: 91%
remaining binding at 10 µM [20]: 92%
remaining binding at 10 µM [21]: 93%
